Data taken from ChEMBL document CHEMBL1135514, “Structure-based approach for binding site identification on AmpC beta-lactamase” (J Med Chem, 2002).

Biological target: Beta-lactamase (Escherichia coli K-12, UniProt P00811)
Test: Binding affinity towards AmpC beta-lactamase binding site from Escherichia coli

Beta-lactamase, sequence (P00811 whole entry): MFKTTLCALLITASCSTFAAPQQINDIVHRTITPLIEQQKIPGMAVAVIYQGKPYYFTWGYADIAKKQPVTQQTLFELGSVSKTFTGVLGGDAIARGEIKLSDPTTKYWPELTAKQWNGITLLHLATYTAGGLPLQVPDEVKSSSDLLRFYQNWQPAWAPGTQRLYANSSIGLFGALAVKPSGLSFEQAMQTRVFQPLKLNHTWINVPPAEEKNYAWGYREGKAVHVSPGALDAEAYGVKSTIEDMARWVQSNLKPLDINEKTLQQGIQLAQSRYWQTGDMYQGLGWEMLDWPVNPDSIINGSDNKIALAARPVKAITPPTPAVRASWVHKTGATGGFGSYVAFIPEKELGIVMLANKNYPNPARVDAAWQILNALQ

CC(C)(O/N=C(/C(=O)NCB(O)O)c1csc(N)n1)C(=O)O
Ki: 20 nM
